Measurements: patent publication US20230382923A1, “FUSED TETRACYCLIC QUINAZOLINE DERIVATIVES AS INHIBITORS OF ERBB2” (EnLiven Therapeutics, Inc., priority 2021, published 2023)
Counter-ions that a name gives are not always drawn. Like-named read-outs stand apart in the source and are kept apart here.

Key:
[1] = target: phosphorylated ERBB2 (pERBB2) (Homo sapiens (Human), UniProt P04626); assay: Detection of phosphorylated ERBB2 (pERBB2) by ELISA in BT-474 cells; assay type: cell-based; conditions: four hours incubation with compound
How it was run: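 BT-474 cells were exposed to serially diluted compounds for 4 h at 37 °C, then lysed. Phospho-ERBB2 in lysates was captured by ELISA and detected with an HRP anti-phosphotyrosine antibody and TMB.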

[2] = target: phosphorylated EGFR (pEGFR) (Homo sapiens (Human), UniProt P00533); assay: Detection of phosphorylated EGFR (pEGFR) by AlphaLISA in A431 cells; assay type: cell-based; conditions: A431 cells (10% FBS), 4 hours incubation, EGF 30 ng/mL for 10 minutes
How it was run: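 A431 cells in 10% FBS exposed to compound for 4 h at 37 °C, then stimulated 10 min with 30 ng/mL EGF. Lysates assayed for phospho-EGFR by AlphaLISA. % inhibition relative to DMSO and staurosporine controls; IC50 from four-parameter curve fit.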

[3] = tested on: Ba/F3 ERBB2 YVMA; assay: Cell viability assay (CellTiter Glo, 72 hours); assay type: cell-based, mouse
Experimental: Cells were treated with compounds, and cell viability was measured as a metric of kinase inhibition.
BT-474, A431, MDA-MB-175VII, NCI-H1781, MCF7, and Ba/F3 cell lines were tested. The Ba/F3 cell line is IL-3-dependent mouse cell line derived from the C3H mouse strain. Ba/F3 cell lines were engineered to express human ERBB2 or EGFR kinases, rendering the cells IL-3 independent. The lines were generated via retroviral transduction utilizing a Moloney murine leukemia virus (MMLV) promoter, and constructs are stably integrated into the cell genome. The sequences of the ERBB2 and EGFR genes used were NCBI Reference Sequences NM_004448.3 and NM_005228.3, respectively.
BT-474, A431, MDA-MB-175VII, NCI-H1781 and MCF7 cells were grown in the appropriate growth medium as described in Table B2 below, and harvested at 50-80% confluence. BT-474, A431, MDA-MB-175VII, NCI-H1781 and MCF7 cells were counted and seeded at 2,000 or 1,500 cells per well in 384-well tissue culture plates (see Table B2). Similarly, Ba/F3 cell lines engineered to express EGFR, ERBB2, or ERBB2 mutants were grown, harvested, counted and seeded at 3000 cells per well in 96-well plates. A subset of wells contained media only (low control, “LC”).
Table B1 provides the growth media and number of cells seeded per well for the each cell line.
Compounds were dissolved in DMSO and serially diluted. Serially-diluted compound or a DMSO only control (high control, “HC”) was added to the plated cells in each well. Compounds were tested at concentrations of about 10 μM to 0.51 nM, using three-fold dilutions. The final proportion of DMSO never exceeded 0.1%.
Plates were placed in a 37° C., 5% CO2 incubator for 72 hours. Plates were then removed from the incubator and equilibrated for 15 minutes at room temperature. 40 μl of CellTiter Glo reagent (Promega) was added to measure the relative level of metabolically active cells by quantifying intracellular ATP concentrations. Plates were incubated for 30 minutes at room temperature, and luminescence was measured. Percent viability was normalized to a vehicle control only using the following formula: % viability=100×(LumSample−LumLC)/(LumHC−LumLC). Graphical curves were fitted using a nonlinear regression model with a sigmoidal dose response.

[4] = Mus musculus, BaF3, 72 h, read-out: Ba/F3 ERBB2 YVMA, IC50, nM
[5] = Mus musculus, BaF3, 72 h, Ba/F3 cells engineered to express human ERBB2 YVMA mutant, 72 hours, CellTiter Glo viability, read-out: Ba/F3 ERBB2 YVMA, IC50
[6] = Ba/F3 cells engineered to express human ERBB2 YVMA mutant, 72 hours, CellTiter Glo viability, read-out: Ba/F3 ERBB2 YVMA, IC50

phosphorylated ERBB2 (pERBB2), sequence (P04626 23-1255): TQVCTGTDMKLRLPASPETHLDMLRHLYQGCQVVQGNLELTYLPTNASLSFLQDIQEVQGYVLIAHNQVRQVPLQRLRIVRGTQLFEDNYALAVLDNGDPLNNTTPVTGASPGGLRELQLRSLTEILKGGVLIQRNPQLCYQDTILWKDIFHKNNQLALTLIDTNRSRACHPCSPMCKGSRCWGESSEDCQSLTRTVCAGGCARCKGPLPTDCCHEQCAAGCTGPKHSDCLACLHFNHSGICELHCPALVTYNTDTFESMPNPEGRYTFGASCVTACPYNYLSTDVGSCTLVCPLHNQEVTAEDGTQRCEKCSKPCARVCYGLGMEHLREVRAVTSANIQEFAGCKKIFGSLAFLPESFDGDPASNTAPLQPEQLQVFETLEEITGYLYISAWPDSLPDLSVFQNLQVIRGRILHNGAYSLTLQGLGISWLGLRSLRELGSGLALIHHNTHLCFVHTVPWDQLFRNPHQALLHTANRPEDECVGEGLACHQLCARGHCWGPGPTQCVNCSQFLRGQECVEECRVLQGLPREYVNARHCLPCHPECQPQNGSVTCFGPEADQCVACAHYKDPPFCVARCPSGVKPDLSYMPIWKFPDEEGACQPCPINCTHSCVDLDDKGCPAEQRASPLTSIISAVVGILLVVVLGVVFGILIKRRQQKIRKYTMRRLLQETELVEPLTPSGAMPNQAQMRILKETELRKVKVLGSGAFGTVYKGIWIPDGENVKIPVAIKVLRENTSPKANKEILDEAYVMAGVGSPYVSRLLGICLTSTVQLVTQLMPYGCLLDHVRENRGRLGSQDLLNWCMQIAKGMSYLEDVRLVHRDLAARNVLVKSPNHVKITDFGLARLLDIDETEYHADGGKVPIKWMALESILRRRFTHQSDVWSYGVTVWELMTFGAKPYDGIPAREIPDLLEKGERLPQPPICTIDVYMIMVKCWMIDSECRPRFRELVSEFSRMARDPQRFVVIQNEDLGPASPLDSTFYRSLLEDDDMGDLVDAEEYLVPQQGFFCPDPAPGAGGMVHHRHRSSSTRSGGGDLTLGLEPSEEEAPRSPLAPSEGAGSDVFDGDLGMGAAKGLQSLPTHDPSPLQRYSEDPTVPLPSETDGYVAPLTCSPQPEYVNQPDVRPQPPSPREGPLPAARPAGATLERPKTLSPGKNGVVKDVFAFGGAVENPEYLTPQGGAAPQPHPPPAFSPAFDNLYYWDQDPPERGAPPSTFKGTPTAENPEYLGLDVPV
phosphorylated EGFR (pEGFR), sequence (P00533 25-1210): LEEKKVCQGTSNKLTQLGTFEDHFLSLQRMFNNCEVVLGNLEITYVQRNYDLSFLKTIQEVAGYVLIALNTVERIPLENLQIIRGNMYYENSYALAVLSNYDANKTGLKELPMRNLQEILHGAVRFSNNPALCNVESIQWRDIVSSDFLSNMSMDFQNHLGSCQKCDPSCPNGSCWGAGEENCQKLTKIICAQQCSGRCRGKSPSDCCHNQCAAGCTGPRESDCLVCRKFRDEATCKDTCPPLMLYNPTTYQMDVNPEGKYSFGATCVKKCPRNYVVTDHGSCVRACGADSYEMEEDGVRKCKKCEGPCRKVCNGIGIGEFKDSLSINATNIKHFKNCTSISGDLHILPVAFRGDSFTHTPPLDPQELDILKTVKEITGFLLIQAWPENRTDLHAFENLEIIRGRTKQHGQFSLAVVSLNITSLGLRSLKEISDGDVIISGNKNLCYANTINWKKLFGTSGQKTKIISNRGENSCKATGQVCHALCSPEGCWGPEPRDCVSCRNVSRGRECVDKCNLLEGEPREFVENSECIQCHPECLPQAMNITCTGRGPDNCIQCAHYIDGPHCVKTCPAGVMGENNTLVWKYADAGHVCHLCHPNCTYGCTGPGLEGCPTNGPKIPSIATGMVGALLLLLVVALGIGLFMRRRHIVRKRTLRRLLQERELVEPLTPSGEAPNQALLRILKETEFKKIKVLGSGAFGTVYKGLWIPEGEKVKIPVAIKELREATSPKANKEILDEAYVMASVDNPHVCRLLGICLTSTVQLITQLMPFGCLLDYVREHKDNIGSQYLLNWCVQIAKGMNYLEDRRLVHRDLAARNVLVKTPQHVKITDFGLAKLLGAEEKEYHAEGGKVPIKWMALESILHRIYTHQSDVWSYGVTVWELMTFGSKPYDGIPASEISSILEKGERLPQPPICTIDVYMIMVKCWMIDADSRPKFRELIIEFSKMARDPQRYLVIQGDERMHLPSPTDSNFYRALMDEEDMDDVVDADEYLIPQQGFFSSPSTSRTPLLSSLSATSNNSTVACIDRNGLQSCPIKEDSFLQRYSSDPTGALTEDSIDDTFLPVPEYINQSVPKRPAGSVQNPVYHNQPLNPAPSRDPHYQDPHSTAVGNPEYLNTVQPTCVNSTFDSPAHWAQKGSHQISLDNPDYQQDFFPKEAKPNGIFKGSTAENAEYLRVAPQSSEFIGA

SMILES: C=CC(=O)N1CCN2CC1COc1cc3ncnc(Nc4ccc(Oc5ccn6ncnc6c5)c(C)c4)c3cc12 (stereo in doubt) [Compound 4, 1-((10S)-4-((4-([1,2,4]triazolo[1,5-a]pyridin-7-yloxy)-3-methylphenyl)amino)-7,8,10,11-tetrahydro-9H-6,10-methano[1,4,7]oxadiazonino[3,2-g]quinazolin-9-yl)prop-2-en-1-one]
- IC50 [1]: 7.36 nM
- IC50 [2]: 1860 nM
- IC50 [3, 4]: 8.63 nM

SMILES: C=CC(=O)N1CCN2CC1COc1cc3ncnc(Nc4ccc(Oc5ccn6ncnc6c5)c(C)c4)c3nc12 (stereo in doubt) [Compound 2, 1-((10R)-4-((4-([1,2,4]triazolo[1,5-a]pyridin-7-yloxy)-3-methylphenyl)amino)-7,8,10,11-tetrahydro-9H-6,10-methanopyrimido[4′,5′:5,6]pyrido[3,2-b][1,4,7]oxadiazonin-9-yl)prop-2-en-1-one]
- IC50 [1]: 422 nM
- IC50 [2]: > 10000 nM
- IC50 [3, 4]: 116 nM

SMILES: C=CC(=O)N1CCN2CC1COc1cc3ncnc(Nc4ccc(Oc5ccc6c(c5)ncn6C)c(C)c4)c3nc12 (stereo in doubt) [Compound 14, 1-((10S)-4-((3-methyl-4-((1-methyl-1H-benzo[d]imidazol-5-yl)oxy)phenyl)amino)-7,8,10,11-tetrahydro-9H-6,10-methanopyrimido[4′,5′:5,6]pyrido[3,2-b][1,4,7]oxadiazonin-9-yl)prop-2-en-1-one]
- IC50 [1]: 43.8 nM
- IC50 [2]: 532 nM
- IC50 [3, 4]: 21.6 nM

SMILES: Cc1cc(Nc2ncnc3cc4c(nc23)N2CCN(C(=O)/C=C/[C@H](C)N(C)C)C(CO4)C2)ccc1Oc1ccn2ncnc2c1 (stereo in doubt) [Compound 30, (4S,E)-1-((10S)-4-((4-([1,2,4]triazolo[1,5-a]pyridin-7-yloxy)-3-methylphenyl)amino)-7,8,10,11-tetrahydro-9H-6,10-methanopyrimido[4′,5′:5,6]pyrido[3,2-b][1,4,7]oxadiazonin-9-yl)-4-(dimethylamino)pent-2-en-1-one]
- IC50 [1]: 10.6 nM
- IC50 [2]: > 10000 nM
- IC50 [3, 5]: 10.5 nM

SMILES: CCc1ccc(Oc2ccc(Nc3ncnc4cc5c(nc34)N3CCN(C(=O)/C=C/CN(C)C)C(CO5)C3)cc2C)cn1 (stereo in doubt) [Compound 38, (E)-4-(dimethylamino)-1-((10S)-4-((4-((6-ethylpyridin-3-yl)oxy)-3-methylphenyl)amino)-7,8,10,11-tetrahydro-9H-6,10-methanopyrimido[4′,5′:5,6]pyrido[3,2-b][1,4,7]oxadiazonin-9-yl)but-2-en-1-one formic acid]
- IC50 [1]: 126 nM
- IC50 [2]: 3080 nM
- IC50 [3, 4]: 11.8 nM

SMILES: C=CC(=O)N1CCN2CC1COc1cc3ncnc(Nc4ccc(Oc5ccn6ncnc6c5)c(C)c4)c3nc12 (stereo in doubt) [Compound 1, 1-((10S)-4-((4-([1,2,4]triazolo[1,5-a]pyridin-7-yloxy)-3-methylphenyl)amino)-7,8,10,11-tetrahydro-9H-6,10-methanopyrimido[4′,5′:5,6]pyrido[3,2-b][1,4,7]oxadiazonin-9-yl)prop-2-en-1-one]
- IC50 [1]: 9.77 nM
- IC50 [2]: 450 nM
- IC50 [3, 4]: 7.77 nM

SMILES: Cc1cc(Nc2ncnc3cc4c(cc23)N2CCN(C(=O)/C=C/CN(C)C)C(CO4)C2)ccc1Oc1ccn2ncnc2c1 (stereo in doubt) [Compound 8, (E)-1-((10R)-4-((4-([1,2,4]triazolo[1,5-a]pyridin-7-yloxy)-3-methylphenyl)amino)-7,8,10,11-tetrahydro-9H-6,10-methano[1,4,7]oxadiazonino[3,2-g]quinazolin-9-yl)-4-(dimethylamino)but-2-en-1-one]
- IC50 [1]: 547 nM
- IC50 [2]: > 10000 nM
- IC50 [3, 5]: > 500 nM

SMILES: C=CC(=O)N1CCN2CC1COc1cc3ncnc(Nc4ccc(Oc5ccn6ncnc6c5)c(C)c4)c3cc12 (stereo in doubt) [Compound 5, 1-((10R)-4-((4-([1,2,4]triazolo[1,5-a]pyridin-7-yloxy)-3-methylphenyl)amino)-7,8,10,11-tetrahydro-9H-6,10-methano[1,4,7]oxadiazonino[3,2-g]quinazolin-9-yl)prop-2-en-1-one]
- IC50 [1]: 1200 nM
- IC50 [2]: > 10000 nM
- IC50 [3, 4]: 304 nM

SMILES: CNC/C=C/C(=O)N1CCN2CC1COc1cc3ncnc(Nc4ccc(Oc5ccn6ncnc6c5)c(C)c4)c3nc12 (stereo in doubt) [Compound 37, (E)-1-((10S)-4-((4-([1,2,4]triazolo[1,5-a]pyridin-7-yloxy)-3-methylphenyl)amino)-7,8,10,11-tetrahydro-9H-6,10-methanopyrimido[4′,5′:5,6]pyrido[3,2-b][1,4,7]oxadiazonin-9-yl)-4-(methylamino)but-2-en-1-one formate]
- IC50 [1]: 28 nM
- IC50 [2]: 3620 nM
- IC50 [3, 4]: 52.3 nM

SMILES: Cc1cc(Nc2ncnc3cc4c(nc23)N2CCCN(C(=O)/C=C/CN(C)C)C(CO4)C2)ccc1Oc1ccn2ncnc2c1 (single isomer, unassigned) [Example S55, Enantiomer 1, (E)-1-(4-((4-([1,2,4]triazolo[1,5-a]pyridin-7-yloxy)-3-methylphenyl)amino)-8,9,11,12-tetrahydro-6,11-methanopyrimido[4′,5′:5,6]pyrido[3,2-b][1,4,8]oxadiazecin-10 (7H)-yl)-4-(dimethylamino)but-2-en-1-one Enantiomer 1]
- IC50 [2]: > 10000 nM
- IC50 [3, 6]: 5.88 nM

SMILES: Cc1cc(Nc2ncnc3cc4c(nc23)N2CCCN(C(=O)/C=C/CN(C)C)C(CO4)C2)ccc1Oc1ccn2ncnc2c1 (single isomer, unassigned) [Example S55, Enantiomer 2, (E)-1-(4-((4-([1,2,4]triazolo[1,5-a]pyridin-7-yloxy)-3-methylphenyl)amino)-8,9,11,12-tetrahydro-6,11-methanopyrimido[4′,5′:5,6]pyrido[3,2-b][1,4,8]oxadiazecin-10 (7H)-yl)-4-(dimethylamino)but-2-en-1-one Enantiomer 2]
- IC50 [2]: > 10000 nM
- IC50 [3, 6]: > 500 nM

SMILES: CN(C)C/C=C/C(=O)N1CCN2CC1COc1cc3ncnc(Nc4cc(Cl)c(Oc5ccn6ncnc6c5)cc4F)c3nc12 (stereo in doubt) [Compound 43, (E)-1-((10S)-4-((4-([1,2,4]triazolo[1,5-a]pyridin-7-yloxy)-5-chloro-2-fluorophenyl)amino)-7,8,10,11-tetrahydro-9H-6,10-methanopyrimido[4′,5′:5,6]pyrido[3,2-b][1,4,7]oxadiazonin-9-yl)-4-(dimethylamino)but-2-en-1-one]
- IC50 [1]: 8.69 nM
- IC50 [2]: 1400 nM

SMILES: Cc1cc(Nc2ncnc3cc4c(nc23)N2CCN(C(=O)/C=C/[C@H](C)N(C)C)C(CO4)C2)c(F)cc1Oc1ccn2ncnc2c1 (stereo in doubt) [Compound 47, (4S,E)-1-((10S)-4-((4-([1,2,4]triazolo[1,5-a]pyridin-7-yloxy)-2-fluoro-5-methylphenyl)amino)-7,8,10,11-tetrahydro-9H-6,10-methanopyrimido[4′,5′:5,6]pyrido[3,2-b][1,4,7]oxadiazonin-9-yl)-4-(dimethylamino)pent-2-en-1-one]
- IC50 [1]: 29.2 nM
- IC50 [2]: > 10000 nM

SMILES: Cc1c(Oc2ccn3ncnc3c2)ccc(Nc2ncnc3cc4c(nc23)N2CCN(C(=O)/C=C/CN(C)C)C(CO4)C2)c1F (stereo in doubt) [Compound 35, (E)-1-((10S)-4-((4-([1,2,4]triazolo[1,5-a]pyridin-7-yloxy)-2-fluoro-3-methylphenyl)amino)-7,8,10,11-tetrahydro-9H-6,10-methanopyrimido[4′,5′:5,6]pyrido[3,2-b][1,4,7]oxadiazonin-9-yl)-4-(dimethylamino)but-2-en-1-one]
- IC50 [1]: 5.48 nM
- IC50 [2]: 309 nM
